Data taken from publication PMC6271626, “Design, Synthesis, and Biological Evaluation of Artemisinin-Indoloquinoline Hybrids as Potent Antiproliferative Agents” (Molecules, 2014).
Where “and” joins values, the source holds several entries; their conditions need not be identical. Equal values may be shown once. Where a name gives a salt, the structure may show the parent alone. Read-outs that look alike come from different tables or passages of the source.

Experiments:
[1] = system: human leukemia MV4-11 cell line; experiment: Antiproliferative assay in vitro, MTT, MV4-11; assay type: cell-based; conditions: mean ± SD
Experimental: (§1) MV4-11 cells were cultured in the RPMI 1640 medium (IIET, Wroclaw) supplemented with 2 mM L-glutamine and 1.0 mM sodium pyruvate, 10% fetal bovine serum (all from Sigma Aldrich, Germany). HCT116 and A549 cells were cultured in the RPMI1640 + OptiMEM (50:50) medium (IIET, Wroclaw) supplemented with 2 mM L-glutamine and 5% fetal bovine serum (all from Sigma Aldrich, Germany), BALB/3T3 cells were cultured in Dulbecco medium (IIET, Wroclaw) supplemented with 2 mM L-glutamine and 1.0 mM sodium pyruvate, 10% fetal bovine serum (all from Sigma Aldrich, Germany). All culture medium was supplemented with 100 units/mL penicillin and […] streptomycin (both from Polfa, Tarchomin S.A., Warsaw, Poland). All cell lines were grown at 37 °C with 5% CO2 humidified atmosphere.
(§2) Test solutions of the compounds tested (1 mg/mL) were prepared by dissolving the substances in 100 μL of DMSO completed with 900 μL of tissue culture medium. Afterward, the tested compounds were diluted in culture medium to reach the final concentrations of 10, 1, 0.1, 0.01 μg/mL. Twenty four hours prior to the addition of the tested compounds, the cells were plated in 96-well plates (Sarstedt, Germany) at a density of 1 × 10^4 or 0.5× 10^4 (HCT116) cells per well. The assay was performed after 72 h of exposure to varying concentrations of the tested agents. The in vitro cytotoxic effect of all agents was examined using the MTT (for MV4-11 cell line) or SRB (for A549, HCT116 and BALB/3T3 cell lines) assay. The results were calculated as an IC50 (inhibitory concentration 50)–the dose of tested agent that inhibits proliferation of 50% of the cell population. Each compound in each concentration was tested in triplicate in a single experiment, which was repeated 3–5 times.

[2] = system: normal mice fibroblast BALB/3T3; experiment: Cytotoxicity against normal fibroblasts, SRB, BALB/3T3; assay type: cell-based, mouse; conditions: mean ± SD
Experimental: as §1, §2

[3] = system: A549, human non-small-cell lung adenocarcinoma cell line; experiment: Antiproliferative assay in vitro, SRB, A549; assay type: cell-based; conditions: mean ± SD
Experimental: as §1, §2

[4] = system: HCT116, human colon cancer cell line; experiment: Antiproliferative assay in vitro, SRB, HCT116; assay type: cell-based; conditions: mean ± SD
Experimental: as §1, §2

[5] = system: A549, human non-small-cell lung adenocarcinoma cell line; set-up: method as in PMID 21207937; conditions: cited from earlier work
[6] = system: HCT116, human colon cancer cell line; set-up: method as in PMID 21207937; conditions: cited from earlier work
[7] = system: human leukemia MV4-11 cell line; conditions: MV4-11 human leukemia cell line; cited from earlier work
[8] = Homo sapiens, MV4-11, 72 h exposure
[9] = Mus musculus, BALB/3T3, 72 h exposure
[10] = Homo sapiens, A549, 72 h exposure
[11] = Homo sapiens, HCT-116, 72 h exposure

IC50 [1, 8] [nM] | IC50 [3, 10] [nM] | IC50 [4, 11] [nM] | Compound | IC50 [2, 9] [µM] | IC50 ([1]; 72 h exposure) | IC50 ([2]; 72 h exposure) [µM] | IC50 ([3]; 72 h exposure) [nM] | IC50 ([4]; 72 h exposure) [nM] | also measured
124 ± 10 | 172 ± 52 | 258 ± 107 | NCCCNc1nc2ccccc2c2[nH]c3ccccc3c12 [Compound 6, 6-(3-aminopropylamino)-11H-indolo[3,2-c]quinoline] | 1.05 ± 0.127 |  |  |  |  | 
286 ± 127 | 1330 ± 586 | 557 ± 85 | CC1CCC2C(C)C(OC(=O)CCC(=O)NCCCNc3c4ccccc4nc4c3[nH]c3ccccc34)OC3OC4(C)CCC1C32OO4 (centres unmarked) [Compound 8, Artesunate-[11-(3-aminopropylamino)-10H-indolo[3,2-b]quinoline] hybrid] | 2.73 ± 0.731 |  |  |  |  | 
128 ± 36 | 1810 ± 516 | 855 ± 235 | CC1CCC2C(C)C(OC(=O)CCC(=O)NCCCNc3nc4ccccc4c4[nH]c5ccccc5c34)OC3OC4(C)CCC1C32OO4 (centres unmarked) [Compound 9] | 4.98 ± 0.471 |  |  |  |  | 
 |  |  | C[C@H]1[C@@H](O)O[C@@H]2O[C@@]3(C)CC[C@H]4[C@H](C)CC[C@@H]1[C@@]24OO3 [DHA (2), dihydroartemisinin] |  |  |  |  |  | IC50 [5]: > 20 µM; IC50 [6]: 1340 ± 1060 nM
 |  |  | CC1CCC2C(C)C(OC(=O)CCC(=O)NCCCNc3c4c5ccccc5nc-4n(C)c4ccccc34)OC3OC4(C)CCC1C32OO4 (centres unmarked) [Compound 7a, Artesunate-[N^1-(5-methyl-5H-indolo[2,3-b]quinolin-11-yl)propane-1,3-diamine] hybrid] |  | 286 ± 79 nM |  |  |  | 
 |  |  | N.N.[Cl][Pt][Cl] [cisplatin, reference compound] |  | 2820 ± 450 nM | 9.5 ± 0.5 | 8960 ± 3330 | 9460 ± 1300 | 
6 ± 2 |  |  | COc1cccc2c1C(=O)c1c(O)c3c(c(O)c1C2=O)C[C@@](O)(C(=O)CO)C[C@@H]3O[C@H]1C[C@H](N)[C@H](O)[C@H](C)O1 [doxorubicin HCl, reference compound] |  |  |  |  |  | 
 |  |  | CC1CCC2C(C)C(OC(=O)CCC(=O)NCC(C)(C)CNc3c4c5ccccc5nc-4n(C)c4ccc(Cl)cc34)OC3OC4(C)CCC1C32OO4 (centres unmarked) [Compound 7b, Artesunate-[N^1-(2-chloro-5-methyl-5H-indolo[2,3-b]quinolin-11-yl)-2,2-dimethjylpropane-1,3-diamine] hybrid] |  | ~72 nM and 72 nM | 6.42 ± 0.996 | 4560 ± 2090 | 893 ± 397 | 
 | 649 ± 80 | 130 ± 14 | COC(=O)c1ccc2c(c1)c(NCCCN)c1c3ccccc3nc-1n2C [Compound 4d, methyl 11-(3-aminopropylamino)-5-methyl-5H-indolo[2,3-b]quinoline-2-carboxylate] | 0.768 ± 0.155 |  |  |  |  | IC50 [7]: 86 ± 20 nM
 |  |  | Cn1c2nc3ccccc3c-2c(NCCCN)c2ccccc21 [Compound 4a, N^1-(5-methyl-5H-indolo[2,3-b]quinolin-11-yl)propane-1,3-diamine] |  |  |  |  |  | IC50 [7]: 66 ± 23 nM
 |  |  | COC(=O)c1ccc2c(c1)c(NCCCNC(=O)CCC(=O)OC1OC3OC4(C)CCC5C(C)CCC(C1C)C35OO4)c1c3ccccc3nc-1n2C (centres unmarked) [Compound 7d, Artesunate-[methyl 11-(3-aminopropylamino)-5-methyl-5H-indolo[2,3-b]quinoline-2-carboxylate] hybride] |  | 148 ± 15 nM | 4.95 ± 0.22 | 3660 ± 535 | 1760 ± 329 | 
 |  |  | COC(=O)c1ccc2c(c1)c(NCC(C)(C)CNC(=O)CCC(=O)OC1OC3OC4(C)CCC5C(C)CCC(C1C)C35OO4)c1c3ccccc3nc-1n2C (centres unmarked) [Compound 7e, Artesunate-[methyl 11-(3-amino-2,2-dimethylpropylamino)-5-methyl-5H-indolo[2,3-b]quinoline-2-carboxylate] hybrid] |  | 75 ± 1 nM | 5.95 ± 1.16 | 5060 ± 911 | 2210 ± 687 | 
 |  |  | CC1CCC2C(C)C(OC(=O)CCC(=O)NCC(C)(C)CNc3c4c5ccccc5nc-4n(C)c4ccc(Br)cc34)OC3OC4(C)CCC1C32OO4 (centres unmarked) [Compound 7c, Artesunate-[N^1-(2-bromo-5-methyl-5H-indolo[2,3-b]quinolin-11-yl)-2,2-dimethylpropane-1,3-diamine] hybrid] |  | 242 ± 31 nM |  |  |  | 
